In paper PMC11945486, “TAS1R2/TAS1R3 Single-Nucleotide Polymorphisms Affect Sweet Taste Receptor Activation by Sweeteners: The SWEET Project” (Nutrients, 2025):
Read-outs that look alike come from different tables or passages of the source. No end group written: not given here.

T1: human TAS1R2-WT/TAS1R3-R813K (Homo sapiens, UniProt Q7RTX0+Q8TE23, R813K)
T1 construct: expressed in transfected cells; host or cells: HEK293T stably expressing Gα16gust44
T1 sequence (Q8TE23 20-839): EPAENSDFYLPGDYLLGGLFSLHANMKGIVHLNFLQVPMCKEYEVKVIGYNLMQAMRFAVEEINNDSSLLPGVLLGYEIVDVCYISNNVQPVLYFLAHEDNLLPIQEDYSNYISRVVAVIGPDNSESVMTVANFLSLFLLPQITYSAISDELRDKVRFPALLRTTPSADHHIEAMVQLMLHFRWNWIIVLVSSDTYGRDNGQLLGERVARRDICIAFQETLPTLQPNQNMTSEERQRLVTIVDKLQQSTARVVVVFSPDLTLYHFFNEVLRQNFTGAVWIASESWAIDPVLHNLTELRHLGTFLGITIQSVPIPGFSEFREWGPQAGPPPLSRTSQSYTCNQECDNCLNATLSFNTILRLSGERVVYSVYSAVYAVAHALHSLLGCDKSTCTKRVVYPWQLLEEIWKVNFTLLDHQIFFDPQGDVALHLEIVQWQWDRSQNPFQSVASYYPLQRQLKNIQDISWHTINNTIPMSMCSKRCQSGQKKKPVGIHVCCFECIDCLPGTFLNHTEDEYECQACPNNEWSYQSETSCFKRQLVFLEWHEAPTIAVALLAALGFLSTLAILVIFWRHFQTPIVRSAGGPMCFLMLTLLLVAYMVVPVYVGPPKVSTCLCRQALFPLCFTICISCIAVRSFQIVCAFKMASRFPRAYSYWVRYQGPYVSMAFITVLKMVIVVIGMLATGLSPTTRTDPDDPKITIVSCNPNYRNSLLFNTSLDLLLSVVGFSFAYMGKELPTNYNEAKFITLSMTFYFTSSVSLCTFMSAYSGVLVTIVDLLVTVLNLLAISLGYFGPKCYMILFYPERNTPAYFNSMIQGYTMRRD
T1 sequence (Q7RTX0 21-852 R813K): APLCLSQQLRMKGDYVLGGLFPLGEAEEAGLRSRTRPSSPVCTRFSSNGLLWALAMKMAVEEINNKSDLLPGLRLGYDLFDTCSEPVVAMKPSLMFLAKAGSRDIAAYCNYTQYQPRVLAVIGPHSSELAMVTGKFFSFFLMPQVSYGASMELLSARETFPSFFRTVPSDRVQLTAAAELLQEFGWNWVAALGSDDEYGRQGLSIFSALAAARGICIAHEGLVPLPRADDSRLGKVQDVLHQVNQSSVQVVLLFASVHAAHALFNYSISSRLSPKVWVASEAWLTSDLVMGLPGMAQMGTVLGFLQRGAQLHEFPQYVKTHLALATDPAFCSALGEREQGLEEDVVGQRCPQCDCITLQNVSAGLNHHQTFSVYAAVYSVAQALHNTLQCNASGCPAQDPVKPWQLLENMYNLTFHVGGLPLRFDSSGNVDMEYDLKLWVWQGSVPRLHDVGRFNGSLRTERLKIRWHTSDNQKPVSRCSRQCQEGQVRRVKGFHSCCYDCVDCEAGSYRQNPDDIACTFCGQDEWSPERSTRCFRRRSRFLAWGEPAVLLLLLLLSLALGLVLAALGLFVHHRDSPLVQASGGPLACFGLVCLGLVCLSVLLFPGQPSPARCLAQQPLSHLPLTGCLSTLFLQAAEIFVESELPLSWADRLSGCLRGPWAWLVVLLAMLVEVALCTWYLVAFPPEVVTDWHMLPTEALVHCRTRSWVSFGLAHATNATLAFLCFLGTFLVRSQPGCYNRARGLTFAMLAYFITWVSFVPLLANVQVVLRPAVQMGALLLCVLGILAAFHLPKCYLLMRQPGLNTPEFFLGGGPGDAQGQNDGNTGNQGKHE


Biological target: T1, human TAS1R2-WT/TAS1R3-R813K
Experiment: Calcium mobilisation assay, TAS1R2-WT with TAS1R3 variant R813K
Assay type: cell-based
Details: for Max ΔF/F0: maximal signal amplitude
Text: The coding sequences for TAS1R2 and TAS1R3 were commercially synthesised, and the human codon was optimised for expression in human cells. The coding sequences of human TAS1R2 and TAS1R3 were subcloned and inserted into the mammalian expression vectors pcDNA6/myc-HisA and pcDNA4/myc-HisA (Invitrogen; Thermo Fisher Scientific; Illkirch, France) between the EcoRI and NotI restriction sites, generating the plasmids pcDNA6-TAS1R2 and pcDNA4-TAS1R3, respectively. To increase protein expression in mammalian cells, an upstream start codon was used, which was a sequence called MAX, corresponding to the QBI SP163 element also described in pcDNA4-HisMax (Invitrogen; Thermo Fisher Scientific; Illkirch, France). To measure the expression level of the receptor by immunohistochemistry, we used the FLAG sequence ([…]) in the C-terminal position, which encodes the FLAG tag epitope. SNP variants of TAS1R2 and TAS1R3 were constructed based on […], respectively, using site-directed mutagenesis (Genewiz; Leipzig, Germany).
The HEK293T cells were kindly provided by Jay P. Slack (Givaudan Flavors Corporation; Cincinnati, OH, USA). HEK293T cells stably transfected with Gα16gust44 [43, 67] were seeded in poly-D-lysine-coated clear-bottom black 96-well plates (0.35 × 10^5 cells/well) in high-glucose DMEM supplemented with 2 mM GlutaMAX, 10% dialysed foetal bovine serum with penicillin/streptomycin and G418 (400 μg/mL) at 37 °C and 6.3% CO2 in a humidified atmosphere as previously reported. […] As a negative control, HEK293T cells were mock-transfected with the empty expression vector. After a further 24 h of incubation, the HEK293T cells were washed with C1 buffer (130 mM NaCl, 5 mM KCl, 10 mM HEPES pH 7.4 and 2 mM CaCl2). The 96-well plates containing the cells were then stimulated with sweet-tasting compounds. […] Different concentration ranges were tested depending on the sweet compound injected. The Ca^2+ changes were expressed as fractional changes in fluorescent light intensity: ΔF/F = (F − F0)/F0, where F was the fluorescent light intensity at each point, and F0 was the value of emitted fluorescent light prior to stimulus application. To calculate dose–response relationships, the changes in fluorescence upon stimulus application were averaged, mock-subtracted and baseline-corrected. The dose–response data obtained were adjusted using a 4-parameter logistic equation. The half-maximal effective concentrations (EC50 values) and maximal signal amplitudes were calculated using SigmaPlot software (version 15.0) (Systat Software; San Jose, CA, USA).
For in vitro calcium mobilisation assay performed on hTAS1R2-SNPs, hTAS1R3-SNPs and mTAS1R3-I60T, 6 to 7 concentrations were tested for each sweet compound, plus buffer alone. All concentration–receptor combinations were measured in duplicate, and each experiment was repeated at least 4 times (8 wells/concentration). Results were expressed for each concentration as ΔF/F mean ± SEM and represented as dose–response curves.

Molecule	R1 = Variant EC50/WT EC50	Max ΔF/F0	EC50 (read-out: EC50)	EC50 (brazzein)
OC[C@H]1O[C@H](O[C@]2(CCl)O[C@H](CCl)[C@@H](O)[C@@H]2O)[C@H](O)[C@@H](O)[C@H]1Cl [Sucralose]	1.1	0.90 ± 0.03	120 ± 9 µM	–
O=S(=O)(O)NC1CCCCC1 [Cyclamate, cyclamate]	–	–	1330 ± 22 µM	–
C=C(C)[C@@H]1CC=C(/C=N/O)CC1 [Perillartine, perillartine]	0.8	1.28 ± 0.16	10.4 ± 3.6 µM	–
C=C1C[C@@]23CC[C@H]4[C@@](C)(CCC[C@@]4(C)C(=O)O[C@@H]4O[C@H](CO)[C@@H](O)[C@H](O[C@@H]5O[C@H](CO)[C@@H](O)[C@H](O)[C@H]5O)[C@H]4O[C@@H]4O[C@H](CO)[C@@H](O)[C@H](O)[C@H]4O)[C@@H]2CC[C@]1(O[C@@H]1O[C@H](CO)[C@@H](O)[C@H](O[C@@H]2O[C@H](CO)[C@@H](O)[C@H](O)[C@H]2O)[C@H]1O[C@@H]1O[C@H](CO)[C@@H](O)[C@H](O)[C@H]1O)C3 [Rebaudioside M, rebaudioside M]	0.7	1.18 ± 0.06	27.4 ± 3.4 µM	–
COc1ccc(CCC(=O)c2c(O)cc(O[C@@H]3O[C@H](CO)[C@@H](O)[C@H](O)[C@H]3O[C@@H]3O[C@@H](C)[C@H](O)[C@@H](O)[C@H]3O)cc2O)cc1O [NHDC, neohesperidin dihydrochalcone]	0.7	1.00 ± 0.02	34.2 ± 15.2 µM	–
thaumatin	0.6	0.74 ± 0.04	–	–
CC1=CC(=O)NS(=O)(=O)O1 [Acesulfame K, acesulfame K]	0.7	0.40 ± 0.01	433 ± 34 µM	–
brazzein (QDKCKKVYENYPVSKCQLANQCNYDCKLDKHARSGECFYDEKRNLQCICDYCEY; ends and bridges not checked; cysteine pairing not given here; UniProt P56552 1-54, looked up) [sweet-tasting protein obtained by recombinant production using the yeast Pichia pastoris]	0.5	1.00 ± 0.05	–	58.0 ± 10.5 µg/mL
C[C@H](CC[C@@H](O[C@@H]1O[C@H](CO[C@@H]2O[C@H](CO)[C@@H](O)[C@H](O)[C@H]2O)[C@@H](O)[C@H](O)[C@H]1O[C@@H]1O[C@H](CO)[C@@H](O)[C@H](O)[C@H]1O)C(C)(C)O)[C@H]1CC[C@@]2(C)[C@@H]3CC=C4[C@@H](CC[C@H](O[C@@H]5O[C@H](CO[C@@H]6O[C@H](CO)[C@@H](O)[C@H](O)[C@H]6O)[C@@H](O)[C@H](O)[C@H]5O)C4(C)C)[C@]3(C)[C@H](O)C[C@]12C [Mogroside V, mogroside V]	0.7	1.14 ± 0.02	22 ± 1.3 µM	–
COC(=O)[C@H](Cc1ccccc1)NC(=O)[C@H](CC(=O)O)NCCC(C)(C)C [Neotame]	0.8	0.79 ± 0.02	0.98 ± 0.07 µM	–
thaumatin (protein, Eight disulfides, sweet-tasting plant protein, E957) ATFEIVNRCSYTVWAAASKGDAALDAGGRQLNSGESWTINVEPGTKGGKIWARTDCYFDDSGSGICKTGDCGGLLRCKRFGRPPTTLAEFSLNQYGKDYIDISNIKGFNVPMDFSPTTRGCRGVRCAADIVGQCPAKLKAPGGGCNDACTVFQTSEYCCTTGKCGPTEYSRFFKRLCPDAFSYVLDKPTTVTCPGSSNYRVTFCPTA	–	–	6.5 ± 0.9 µM	–
